Results as given in patent US9931328B2, “Topical retinoid compositions” (DR. REDDY'S LABORATORIES, LTD., priority 2015, dated 2018).

Experiments:
[1] = Multiple dose bioavailability study versus TAZORAC 0.1% cream; format: in vivo, healthy male subjects; settings: after topical application of test or reference product
Protocol: The study was a single-center, randomized, multiple dose, laboratory-blinded, open-label, 3-arm, parallel design in healthy male subjects. The following investigational products were to be administered: 1) Test product: composition of example 1 (tazarotene 0.1%) and 2) reference: TAZORAC cream 0.1%. Following were treatment arms: 1) Treatment 1: Test product applied twice daily, in the morning and evening, 12 hours apart; 2) Treatment 2: Test product applied once daily, in the morning; and 3) Treatment 3: Reference product applied once daily, in the morning. For each study arm (n=16), approximately 5 g of the Test or Reference product was to be applied to the subjects face, neck, shoulders, upper chest and upper back (total approximately equivalent to 15% body surface area (BSA)) over 14 consecutive days (Days 1 to 14). Blood sample were collected time to time as per the schedule of the study.

[2] = Excipients compatibility study with tazarotene; format: physicochemical
Protocol: Excipient compatibility study for tazarotene was carried out with various pharmaceutically acceptable excipients. The tazarotene was tested in a set of compatibility screening studies with the excipients in closed vials containing tazarotene. The excipients physical mixture were incubated in ovens with and without moisture at 60° C. or 40° C./75% RH for 4 weeks.

concentrations of the parent compound detected in plasma samples [1]: Very low concentrations | excipient compatibility ([2]; with benzyl alcohol, lactic acid, polysorbate 80): incompatible | excipient compatibility ([2]; with excipients of examples 1, 2, 3 (carbomer type A and B, cocobetaine, sodium lauryl sarcosinate, stearyl alcohol, cetyl alcohol, glycerine, vitamin E TPGS, gluconolactone, BHT, parabens)): compatible
SMILES: CCOC(=O)c1ccc(C#Cc2ccc3c(c2)C(C)(C)CCS3)nc1 [tazarotene, Tazarotene]
